# In PubChem BioAssay (NCI):
# “And” between values parts separate entries of the source, which are not always exact repeats. Identical values can stand only once.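 Growth conditions: 96-well plates. Treatment: test compound, 48 hours, 5 concentrations. Analysis: linear interpolation between bracketing concentrations; unreached endpoints set to highest concentration. GI50 = concentration required for 50% inhibition of growth. TGI marks complete inhibition of growth.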
# Tests used:
# Test in all cases: NCI tumour cell line growth inhibition, 48 h
# [1] = system: DMS 114 small cell lung
# [2] = system: UACC-257 melanoma
# [3] = system: HOP-62 NSCLC
# [4] = system: UACC-62 melanoma
# [5] = system: 786-0 renal
# [6] = system: HCT-116 colon
# [7] = system: KM12 colon
# [8] = system: SK-OV-3 ovarian
# [9] = system: HL-60(TB) leukemia
# [10] = system: KM20L2 colon
# [11] = system: OVCAR-5 ovarian
# [12] = system: IGROV1 ovarian
# [13] = system: NCI-H460 lung
# [14] = system: TK-10 renal
# [15] = system: U251 CNS
# [16] = system: A498 renal
# [17] = system: OVCAR-8 ovarian
# [18] = system: OVCAR-4 ovarian
# [19] = system: CCRF-CEM leukemia
# [20] = system: SR leukemia
# [21] = system: SNB-19 CNS
# [22] = system: XF 498 CNS
# [23] = system: UO-31 renal
# [24] = system: SF-268 CNS
# [25] = system: RXF-631 renal
# [26] = system: EKVX NSCLC
# [27] = system: ACHN renal
# [28] = system: HOP-18 NSCLC
# [29] = system: A549 NSCLC
# [30] = system: K-562 leukemia
# [31] = system: RPMI-8226 leukemia
# [32] = system: M14 melanoma
# [33] = system: RXF 393 renal
# [34] = system: SK-MEL-2 melanoma
# [35] = system: COLO 205 colon
# [36] = system: M19-MEL melanoma
# [37] = system: CAKI-1 renal
# [38] = system: SK-MEL-28 melanoma
# [39] = system: SW-620 colon
# [40] = system: HCC-2998 colon
# [41] = system: DLD-1 colon
# [42] = system: LXFL 529 NSCLC
# [43] = system: SNB-78 CNS
# [44] = system: NCI-H226 lung
# [45] = system: SNB-75 CNS
# [46] = system: SF-539 CNS
# [47] = system: SK-MEL-5 melanoma
# [48] = system: SF-295 CNS
# [49] = system: HCT-15 colon
# [50] = system: SN12C renal
# [51] = system: NCI-H522 lung
# [52] = system: MOLT-4 leukemia
# [53] = system: HT29 colon
# [54] = system: OVCAR-3 ovarian
# [55] = system: DMS 273 small cell lung
# [56] = system: NCI-H23 lung
# [57] = system: MALME-3M melanoma
# [58] = system: HOP-92 NSCLC
# [59] = system: LOX IMVI melanoma
# [60] = system: SN12K1 renal
# [61] = system: P388/ADR leukemia
# [62] = system: NCI/ADR-RES ovarian
# [63] = system: P388 leukemia
# [64] = system: MCF7 breast
# [65] = system: T-47D breast
# [66] = system: BT-549 breast
# [67] = system: DU-145 prostate
# [68] = system: MDA-MB-231 breast
# [69] = system: HS 578T breast
# [70] = system: MDA-MB-435
# [71] = system: PC-3 prostate
compound,measurement,setting,value
O=c1[nH]c(=O)n(C2CC(O)C(CO)O2)cc1C#Cc1cc(C(F)(F)F)cc(C(F)(F)F)c1 (stereo unspecified),TGI,[1],> 100 µM
same,TGI,[2],> 100 µM
same,TGI,[3],> 100 µM
same,TGI,[4],> 31.6 µM
same,TGI,[5],> 100 µM
same,TGI,[6],> 100 µM
same,TGI,[7],> 100 µM
same,TGI,[8],> 100 µM
same,TGI,[9],> 100 µM
same,TGI,[10],> 100 µM
same,TGI,[11],> 100 µM
same,TGI,[12],> 100 µM
same,TGI,[13],> 100 µM
same,TGI,[14],> 100 µM
same,TGI,[15],> 100 µM
same,TGI,[16],> 100 µM
same,TGI,[17],> 100 µM
same,TGI,[18],> 100 µM
same,TGI,[19],> 100 µM
same,TGI,[20],> 100 µM
same,TGI,[21],> 100 µM
same,TGI,[22],> 86.6 µM
same,TGI,[23],> 100 µM
same,TGI,[24],> 100 µM
same,TGI,[25],> 100 µM
same,TGI,[26],> 100 µM
same,TGI,[27],> 100 µM
same,TGI,[28],> 100 µM
same,TGI,[29],> 100 µM
same,TGI,[30],> 100 µM
same,TGI,[31],> 100 µM
same,TGI,[32],> 46.5 µM
same,TGI,[33],39 µM
same,TGI,[34],> 100 µM
same,TGI,[35],> 42.7 µM
same,TGI,[36],> 74 µM
same,TGI,[37],> 100 µM
same,TGI,[38],> 100 µM
same,TGI,[39],> 100 µM
same,TGI,[40],> 100 µM
same,TGI,[41],> 100 µM
same,TGI,[42],> 100 µM
same,TGI,[43],> 100 µM
same,TGI,[44],> 100 µM
same,TGI,[45],> 67.1 µM
same,TGI,[46],> 90.9 µM
same,TGI,[47],> 55.6 µM
same,TGI,[48],> 100 µM
same,TGI,[49],> 100 µM
same,TGI,[50],> 100 µM
same,TGI,[51],> 81.5 µM
same,TGI,[52],> 100 µM
same,TGI,[53],> 51.9 µM
same,TGI,[54],> 100 µM
same,TGI,[55],> 93.6 µM
same,TGI,[56],> 89.3 µM
same,TGI,[57],> 100 µM
same,TGI,[58],> 100 µM
same,TGI,[59],> 45.9 µM
O=C(O)/C=C/c1cnc[nH]1,TGI,[1],> 500 µM
same,TGI,[2],> 500 µM
same,TGI,[3],> 500 µM
same,TGI,[4],> 500 µM
same,TGI,[6],> 500 µM
same,TGI,[7],> 500 µM
same,TGI,[8],> 500 µM
same,GI50,[9],> 500 µM
same,TGI,[9],> 500 µM
same,GI50,[10],> 500 µM
same,TGI,[10],> 500 µM
same,TGI,[11],> 500 µM
same,TGI,[12],> 500 µM
same,TGI,[13],> 500 µM
same,TGI,[15],> 500 µM
same,TGI,[16],> 500 µM
same,TGI,[17],> 500 µM
same,TGI,[18],> 500 µM
same,GI50,[19],> 500 µM
same,TGI,[19],> 500 µM
same,TGI,[21],> 500 µM
same,TGI,[22],> 500 µM
same,TGI,[23],> 500 µM
same,GI50,[24],> 500 µM and 70 µM
same,TGI,[24],> 500 µM
same,TGI,[26],> 500 µM
same,TGI,[60],> 500 µM
same,TGI,[28],> 500 µM
same,TGI,[29],> 500 µM
same,TGI,[30],> 500 µM
same,TGI,[31],> 500 µM
same,TGI,[33],> 500 µM
same,TGI,[34],> 500 µM
same,TGI,[35],> 500 µM
same,TGI,[36],> 500 µM
same,TGI,[37],> 500 µM
same,TGI,[38],> 500 µM
same,TGI,[39],> 500 µM
same,TGI,[40],> 500 µM
same,TGI,[41],> 500 µM
same,GI50,[43],> 500 µM
same,TGI,[43],> 500 µM
same,TGI,[44],> 500 µM
same,TGI,[45],> 500 µM
same,TGI,[61],> 500 µM
same,TGI,[46],> 500 µM
same,TGI,[47],> 232 µM
same,TGI,[48],> 500 µM
same,GI50,[49],284 µM and > 500 µM
same,TGI,[49],> 500 µM
same,TGI,[50],> 500 µM
same,TGI,[51],> 500 µM
same,TGI,[52],> 500 µM
same,TGI,[53],> 500 µM
same,TGI,[54],> 500 µM
same,TGI,[62],> 500 µM
same,TGI,[55],> 500 µM
same,GI50,[63],> 500 µM
same,TGI,[63],> 500 µM
same,TGI,[56],> 500 µM
same,TGI,[57],> 500 µM
same,TGI,[58],> 500 µM
same,TGI,[59],> 500 µM
same,TGI,[64],> 500 µM
COc1ccc2c[n+](C)c3c4cc(OC)c(OC)cc4ccc3c2c1,TGI,[1],4.16 µM
same,TGI,[2],57.6 µM
same,TGI,[3],27.7 µM
same,TGI,[4],41.3 µM
same,TGI,[5],15.5 µM
same,TGI,[6],16.8 µM
same,TGI,[7],3.85 µM
same,TGI,[8],14.7 µM
same,TGI,[9],32.4 µM
same,TGI,[10],29.7 µM
same,TGI,[11],34.4 µM
same,TGI,[12],22.1 µM
same,TGI,[13],19.3 µM
same,TGI,[14],51.5 µM
same,TGI,[15],15.3 µM
same,TGI,[16],> 100 µM
same,TGI,[17],13.8 µM
same,TGI,[18],26.4 µM
same,TGI,[19],31.2 µM
same,TGI,[20],14.4 µM
same,TGI,[21],12 µM
same,TGI,[22],22.1 µM
same,TGI,[65],18.9 µM
same,TGI,[23],84.6 µM
same,TGI,[66],10.8 µM
same,TGI,[24],13.2 µM
same,TGI,[25],46.9 µM
same,TGI,[26],54.7 µM
same,TGI,[67],37.4 µM
same,TGI,[27],> 92.5 µM
same,TGI,[28],> 96.1 µM
same,TGI,[68],18.3 µM
same,TGI,[29],10.3 µM
same,TGI,[30],34.9 µM
same,TGI,[31],16.1 µM
same,TGI,[32],32.1 µM
same,TGI,[33],35.2 µM
same,TGI,[34],27.7 µM
same,TGI,[69],16.1 µM
same,TGI,[35],5.49 µM
same,TGI,[36],25.6 µM
same,TGI,[37],> 100 µM
same,TGI,[38],40.1 µM
same,TGI,[39],16.4 µM
same,TGI,[40],34.3 µM
same,TGI,[70],28.4 µM
same,TGI,[41],42.2 µM
same,TGI,[42],12 µM
same,TGI,[43],33.5 µM
same,TGI,[44],35.1 µM
same,TGI,[45],15.7 µM
same,TGI,[46],24.9 µM
same,TGI,[47],29.3 µM
same,TGI,[48],34.8 µM
same,TGI,[49],> 70.4 µM
same,TGI,[71],16.2 µM
same,TGI,[50],12.6 µM
same,TGI,[51],7.5 µM
same,TGI,[52],32.3 µM
same,TGI,[53],23.1 µM
same,TGI,[54],17.7 µM
same,TGI,[62],> 100 µM
same,TGI,[55],12.5 µM
same,TGI,[56],13.6 µM
same,TGI,[57],42 µM
same,TGI,[58],35.3 µM
same,TGI,[59],17.2 µM
same,TGI,[64],> 100 µM
